Activity calls are given as the source filed them.
Tests used:
[1] = biological target: RNA-editing ligase 1, mitochondrial (Trypanosoma brucei brucei, UniProt P86926); test: inhibition of trypanosome RNA editing ligase – biochemical, fluorescence, Trypanosoma brucei, dose response (AID 1117295); format: functional
[2] = Late stage results for the probe development effort to identify inhibitors of Plasmodium falciparum gametocytes: Luminescence-based cell-based high throughput dose response assay to identify inhibitors of viability of late stage Plasmodium falciparum gametocytes.; format: functional
Fibrinogen beta chain [3] = biological target: T1, Fibrinogen beta chain (Homo sapiens, UniProt P02675); test: Fluorescence polarization-based biochemical high throughput dose response assay to identify inhibitors that disrupt the binding of a cyclic peptide (Tn6) to the fibrin proteolytic product D-Dimer and fragment E complex [DD(E )].
Fibrinogen beta chain [4] = biological target: T1, Fibrinogen beta chain; test: Fluorescence polarization-based biochemical high throughput dose response assay to identify inhibitors that disrupt the binding of a cyclic peptide (Tn7) to the fibrin proteolytic product D-Dimer and fragment E complex [DD(E )].
[5] = biological target: Photoreceptor-specific nuclear receptor (Homo sapiens, UniProt Q9Y5X4); format: functional;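 further: potency for compounds that break the NR2E3 corepressor complex and count as activators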
[6] = biological target: Peroxisome proliferator-activated receptor gamma/Nuclear receptor corepressor 2 (Homo sapiens, UniProt P37231+Q9Y618); format: functional
CAAX prenyl protease 2 [7] = biological target: T2, CAAX prenyl protease 2 (Saccharomyces cerevisiae S288c, UniProt Q03530); format: biochemical
T2 sequence (Q03530 whole entry): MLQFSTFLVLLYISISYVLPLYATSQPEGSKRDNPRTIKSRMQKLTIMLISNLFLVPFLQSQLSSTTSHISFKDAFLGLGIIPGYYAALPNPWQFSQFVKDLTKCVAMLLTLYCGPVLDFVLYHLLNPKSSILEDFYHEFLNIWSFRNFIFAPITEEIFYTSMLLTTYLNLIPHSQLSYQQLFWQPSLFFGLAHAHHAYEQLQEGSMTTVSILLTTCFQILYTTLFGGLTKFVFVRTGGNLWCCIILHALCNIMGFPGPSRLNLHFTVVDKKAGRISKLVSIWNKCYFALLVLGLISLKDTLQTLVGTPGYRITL

[8] = biological target: Dual specificity tyrosine-phosphorylation-regulated kinase 1A (Rattus norvegicus, UniProt Q63470); format: biochemical, Homo sapiens
CAAX prenyl protease 2 [9] = biological target: CAAX prenyl protease 2 (Homo sapiens, UniProt Q9Y256); test: inhibition of Ras-converting CAAX protease Rce1 – biochemical, yeast membranes, quenched-peptide fluorescence, cherry-pick, dose response (AID 588849)
[10] = biological target: T3, Small ubiquitin-related modifier 1 (Homo sapiens, UniProt P63165); test: SUMO1 protein interaction blockers, potency – biochemical, fluorescence polarization, uHTS hits, dose response (AID 624382); format: functional; conditions: read-out: IC50_Mean
[11] = biological target: T3, Small ubiquitin-related modifier 1; test: SUMO1 protein-protein binding blockers, potency – biochemical, FRET, dose response (AID 624383); format: functional; conditions: read-out: IC50_Mean
[12] = biological target: Tyrosyl-DNA phosphodiesterase 2 (Homo sapiens, UniProt O95551); test: potency against TDP2 phosphodiesterase activity – biochemical, epi absorbance, IC50, dose response (AID 743297)
Major prion protein = Major prion protein (Homo sapiens, UniProt P04156); format: functional, cell-based
cells [13] = test: cells
[14] = inhibitors of non-replicating M. tuberculosis, dose response, luciferase, dry powder (AID 651619); format: functional; conditions: Mycobacterium tuberculosis
[15] = inhibitors of non-replicating M. tuberculosis, dose response, luciferase, dry powder (AID 651620); format: functional; conditions: Mycobacterium tuberculosis
[16] = growth inhibition of replicating M. tuberculosis, dose response, counter-screen, dry powder, IC90 (AID 651617); format: functional; conditions: Mycobacterium tuberculosis
[17] = biological target: Potassium channel subfamily K member 9 (Homo sapiens, UniProt Q9NPC2); test: KCNK9 flux blockade, concentration-response – cell-based, FluxOR thallium flux, selectivity assay for TASK1 inhibitor project, SAR follow-up (AID 652211); format: functional;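 further: potency is for inhibitors of the channel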
[18] = biological target: Voltage-gated inwardly rectifying potassium channel KCNH2 (Homo sapiens, UniProt Q12809); test: off-target hERG block by TASK1 inhibitor candidates – FluxOR thallium flux, concentration-response, CHO cells, selectivity assay for TASK1 inhibitor project, SAR follow-up (AID 652194); format: functional, cell-based
[19] = biological target: Potassium channel subfamily K member 3 (Homo sapiens, UniProt O14649); test: inhibition of human KCNK3 channel flux – CHO cells, FluxOR thallium flux, SAR follow-up (AID 652212); format: functional
Phospholipase D2 = Phospholipase D2 (Homo sapiens, UniProt O14939); test: PLD2 Cellular Concentration Response Study.; format: functional
Phospholipase D1 = Phospholipase D1 (Homo sapiens, UniProt Q13393); test: PLD1 Cellular Concentration Response Study.; format: functional
[20] = biological target: Heat shock protein HSP 90-alpha (Homo sapiens, UniProt P07900); test: Luminescence-based dose response biochemical high throughput screening assay for inhibitors of the Heat Shock Protein 90 (HSP90). [Related pubchem assays: 1831 (Summary AID.), 1846 (Confirmation screen.), 1789 (Primary screen.)]
[21] = Late stage assay provider results from the probe development effort to identify selective inhibitors of heat shock protein 90 (HSP90): Absorbance-based cell proliferation assay in SKBR3 cells.; format: functional; conditions: SK-BR-3
[22] = Late stage assay provider results from the probe development effort to identify selective inhibitors of heat shock protein 90 (HSP90): Absorbance-based cell proliferation assay in MCF7 cells.; format: functional
[23] = viability loss in THP-1 monocytes – THP-1 cells, cytotoxicity control for Vif-APOBEC3G degradation inhibitor project, dose response (AID 1117359); format: functional; conditions: THP-1
Paired box protein Pax-8 = Paired box protein Pax-8 (Homo sapiens, UniProt Q06710); test: PAX8 transcriptional activity inhibition in RMG-I – RMG-I cells, luciferase, cherry-pick, dose response (AID 687027); format: functional, cell-based;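 further: luciferase reporter driven by Pax8 target thyroperoxidase promoter measured by SteadyGlo luminescence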
[24] = OVCAR-3 cell viability loss – plate reader, dry powder samples, PAX8 inhibitor project, dose response (AID 743044); format: functional, cell-based
[25] = biological target: Oxysterols receptor LXR-beta (Homo sapiens, UniProt P55055); format: functional, cell-based;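 further: Cell-based luminescence dose-response assay of agonist activity at LXR, run as a confirmatory counterscreen to a daf-12 agonist screen; HEK293 cells with Gal4-LXR fusion and GAL4-driven luciferase reporter; agonist potency from rising luciferase signal of a Gal4-LXR reporter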
cells [26] = test: cells; remark: listed apart in the source

C=CCNC1=NC(c2cccc(F)c2)C(C(=O)OC)=C(C)N1Cc1cccc(C(F)(F)F)c1 (stereo not given)
IC50 [1]: > 96.6 µM (inactive)

O=C(Nc1nccs1)c1cn(-c2ccccc2)nc1-c1cccnc1
IC50 [2]: > 74.4 µM (inactive)

C#CCNc1ccc(C(=O)OCC)cc1
IC50 (Fibrinogen beta chain [3]): > 83.1 µM (inactive)
IC50 (Fibrinogen beta chain [4]): > 27.7 µM (inactive)

N#CC(C#N)=C1NC(N)=C(C#N)C(c2ccccc2)=C1C#N
IC50 [5]: 8.41 µM (active)
IC50 [6]: 3.22 µM (active)
AC50 (CAAX prenyl protease 2 [7]): > 100 µM (inactive)
AC50 [8]: 4.56 µM (active)
AC50 (CAAX prenyl protease 2 [9]): 8.31 µM (active)
IC50 [10]: > 66.6 µM (inactive)
IC50 [11]: 100 µM (inactive)
IC50 [12]: > 128 µM (inactive)
IC50 (Major prion protein): 1.92 µM (active)
IC50 (cells [13]): > 138 µM (inactive)

[N-]=[N+]=NCCOCCNC(=O)CCCOc1ccc(CSc2nnc(-c3ccc(F)cc3)o2)nc1
IC90 [14]: 16 µM (active)
IC90 [15]: 16 µM (active)
IC90 [16]: 250 µM (active)

COc1ccc(CC(=O)NCc2ccccc2-c2ccccc2C(=O)NCc2ccc(F)cc2F)cc1
IC50 [17]: 3.2 µM (active)
IC50 [18]: 36.7 µM (active)
IC50 [19]: 0.115 µM (active)

O=C(NCCN1CCC2(CC1)C(=O)NCN2CC1CC1)c1ccc2ccccc2c1
IC50 (Phospholipase D2): 2.05 µM (active)
IC50 (Phospholipase D1): 20 µM (active)

CCOc1ccc(-c2nc(CN3CCCCC3CCn3cccn3)c(C)o2)cc1 (stereo not given)
IC50 [20]: 9.63 µM (active)
IC50 [21]: 12.3 µM (inactive)
IC50 [22]: 22.2 µM (inactive)
CC50 [23]: > 40 µM (active)

Cc1cccc(S(=O)(=O)N2CC[C@@H]3[C@H](CO)N(C)c4ccc(-c5ccc(C#N)cc5)cc4[C@@H]32)c1
AC50 (Paired box protein Pax-8): 10.1 µM (active)
AC50 [24]: 67.7 µM (active)

CCOC(=O)c1s/c(=N\C(=O)c2cccs2)n(C)c1C
EC50 [25]: > 67.5 µM (inactive)
EC50 (cells [26]): > 67.5 µM (inactive)

Source: ChEMBL document CHEMBL1201862, “PubChem BioAssay data set” (2004)
